Activity calls are given as the source filed them. The rule behind the calls is not given here.
Legend:
[1] = Cytotoxicity against human ECA109 cells assessed as decrease in cell proliferation after 48 hrs by MTT assay; assay type: functional, cell-based; details: ECa-109, 48 h
[2] = Cytotoxicity against human HeLa cells assessed as decrease in cell proliferation after 48 hrs by MTT assay; assay type: functional, cell-based
[3] = Cytotoxicity against HEEC assessed as decrease in cell proliferation after 48 hrs by MTT assay; assay type: toxicity; details: human, HEEC cells
[4] = molecular target: T1, DNA topoisomerase 1 (Homo sapiens) (UniProt P11387); experiment: Inhibition of DNA topoisomerase-1 (unknown origin)-mediated supercoiled pBR322 DNA relaxation at 5 uM after 30 mins by agarose gel electrophoresis
T1 sequence (whole entry): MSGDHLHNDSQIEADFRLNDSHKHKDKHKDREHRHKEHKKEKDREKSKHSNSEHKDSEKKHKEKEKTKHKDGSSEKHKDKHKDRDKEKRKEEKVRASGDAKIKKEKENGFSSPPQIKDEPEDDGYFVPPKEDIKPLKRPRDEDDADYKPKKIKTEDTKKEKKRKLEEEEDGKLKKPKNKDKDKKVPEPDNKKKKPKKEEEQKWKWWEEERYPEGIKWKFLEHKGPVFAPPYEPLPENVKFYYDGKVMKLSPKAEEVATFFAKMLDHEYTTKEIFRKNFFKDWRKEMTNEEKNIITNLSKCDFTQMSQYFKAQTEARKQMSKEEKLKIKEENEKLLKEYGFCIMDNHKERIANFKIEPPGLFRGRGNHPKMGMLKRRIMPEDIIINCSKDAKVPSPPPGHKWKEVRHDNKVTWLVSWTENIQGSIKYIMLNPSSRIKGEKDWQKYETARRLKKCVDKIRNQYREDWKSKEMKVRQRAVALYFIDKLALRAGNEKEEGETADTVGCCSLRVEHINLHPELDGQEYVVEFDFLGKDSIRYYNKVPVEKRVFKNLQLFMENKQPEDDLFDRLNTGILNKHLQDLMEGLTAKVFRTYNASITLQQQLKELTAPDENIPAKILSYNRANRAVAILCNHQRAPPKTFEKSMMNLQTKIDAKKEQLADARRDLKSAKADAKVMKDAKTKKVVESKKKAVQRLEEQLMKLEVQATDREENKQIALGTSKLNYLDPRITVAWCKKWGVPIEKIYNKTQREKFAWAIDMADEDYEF

HeLa [5] = experiment: Induction of apoptosis in human HeLa cells assessed as chromatin condensation at IC50 after 48 hrs by Hoechst 33342 staining-based fluorescence microscopic method; assay type: functional, cell-based
HeLa [6] = experiment: Induction of apoptosis in human HeLa cells assessed as chromatin fragmentation at IC50 after 48 hrs by Hoechst 33342 staining-based fluorescence microscopic method; assay type: functional, cell-based
[7] = molecular target: T1, DNA topoisomerase 1 (Homo sapiens); experiment: Inhibition of DNA topoisomerase-1 (unknown origin)-mediated supercoiled pBR322 DNA relaxation at 25 uM after 30 mins by agarose gel electrophoresis
[8] = molecular target: T1, DNA topoisomerase 1 (Homo sapiens); experiment: Inhibition of DNA topoisomerase-1 (unknown origin)-mediated supercoiled pBR322 DNA relaxation at 100 uM after 30 mins by agarose gel electrophoresis

Compound	IC50 [1] [µM]	IC50 [2] [µM]	IC50 at 48 h [3] [µM]	inhibition [4]	Activity (HeLa [5])	Activity (HeLa [6])	inhibition [7]	inhibition [8]
O=C1C(O)=C(C(c2ccc([N+](=O)[O-])cc2)c2c[nH]c3ccccc23)C(=O)c2ccccc21 (stereo not given)	60.9	14.8	> 200	–	–	–	–	–
O=C1C(O)=C(C(c2ccc([N+](=O)[O-])cc2)c2c(-c3ccccc3)[nH]c3ccccc23)C(=O)c2ccccc21 (stereo not given)	5.08	6.77	14.2	Active	Active	Active	–	–
COc1ccccc1C(C1=C(O)C(=O)c2ccccc2C1=O)c1c[nH]c2ccccc12 (stereo not given)	> 200	128	> 200	–	–	–	–	–
O=C1C(O)=C(C(c2ccc(Cl)cc2)c2c[nH]c3ccccc23)C(=O)c2ccccc21 (stereo not given)	45.8	37	102	–	–	–	–	–
Cc1[nH]c2ccccc2c1C(C1=C(O)C(=O)c2ccccc2C1=O)c1ccc([N+](=O)[O-])cc1 (stereo not given)	6	4.57	15.1	–	Active	Active	Active	–
Cc1[nH]c2ccccc2c1C(C1=C(O)C(=O)c2ccccc2C1=O)c1ccc(Cl)cc1 (stereo not given)	14.3	8.03	40.2	–	–	–	–	–
O=C1C(O)=C(C(c2cccc([N+](=O)[O-])c2)c2c(-c3ccccc3)[nH]c3ccccc23)C(=O)c2ccccc21 (stereo not given)	5.83	12.5	13.4	–	–	–	Active	–
COc1cc(C(C2=C(O)C(=O)c3ccccc3C2=O)c2c[nH]c3ccc(Br)cc23)cc(OC)c1OC (stereo not given)	13	9.71	36.3	–	–	–	–	Active
O=C1C(O)=C(C(c2cccc([N+](=O)[O-])c2)c2c[nH]c3ccccc23)C(=O)c2ccccc21 (stereo not given)	36.1	24.9	91.2	–	–	–	–	–
O=C1C(O)=C(C(c2ccc([N+](=O)[O-])cc2)c2c[nH]c3ccc(Br)cc23)C(=O)c2ccccc21 (stereo not given)	16.9	14.1	45.2	–	–	–	–	–
O=C1C(O)=C(C(c2ccccc2)c2c(-c3ccccc3)[nH]c3ccccc23)C(=O)c2ccccc21 (stereo not given)	5.18	18.8	26.4	–	–	–	–	–
CC[C@@]1(O)C(=O)OCc2c1cc1n(c2=O)Cc2cc3ccccc3nc2-1 [CAMPTOTHECIN]	9.52	11.4	17.7	–	–	–	–	–
CC(C)=CCC1=C(O)C(=O)c2ccccc2C1=O [LAPACHOL]	12.6	20.4	20.2	–	–	–	–	–
O=C1C(O)=C(C(c2cccs2)c2c[nH]c3ccccc23)C(=O)c2ccccc21 (stereo not given)	12.1	12.4	31.2	–	–	–	–	–
COc1cccc(C(C2=C(O)C(=O)c3ccccc3C2=O)c2c[nH]c3ccccc23)c1 (stereo not given)	40	25.6	110	–	–	–	–	–
O=C1C(O)=C(C(c2ccc(F)cc2)c2c[nH]c3ccccc23)C(=O)c2ccccc21 (stereo not given)	28.1	15.8	65.2	–	–	–	–	–
COc1ccc(C(C2=C(O)C(=O)c3ccccc3C2=O)c2c[nH]c3ccccc23)cc1Br (stereo not given)	11.8	7.32	25.2	–	–	–	Active	–

Source: ChEMBL document CHEMBL3860081, “Design, synthesis and biological evaluation of lapachol derivatives possessing indole scaffolds as topoisomerase I inhibitors” (Bioorg Med Chem, 2016)
